This is an account of results in patent publication US9265706B2, “Lichesterinic acid and the derivatives of same as pigmentation inhibitors” (Centre National de la Recherche Scientifique—CNRS, priority 2012, dated 2016).

In this test the test system is B16 cells. Put plainly: Melanin content of murine B16 cells by absorbance at 405 nm, related to protein, relative to DMSO control. It counts as cell-based. Particulars: for depigmenting activity compared with the positive control hydroquinone: FIG. 2, C9LA+ and C5LA+ given by way of indication. How it is done: The cells are seeded in a 10 cm Petri dish at a density of 7×10^5 per dish and are incubated for 96 hours, with a defined concentration of lichen-derived molecule, which has been purified and solubilized in DMSO. After treatment, the cells are recovered by treatment with trypsin and washed twice with PBS. The number of cells recovered is estimated by counting using a hemocytometer. One and the same fraction is used to determine the melanin content and the protein concentration. The melanin content is determined by the absorbance at 405 nm (VersaMax Microplate Reader, Molecular Devices, USA) of the cell solution after solubilization of the melanin with 1M sodium hydroxide, for 15 min at 80° C. The protein concentration is determined according to the protocol of the “DC Protein Assay” kit developed by Bio-Rad laboratories, USA. For each sample treated, the melanin content is related to the amount of protein and expressed as a percentage relative to the control situation (DMSO solution alone). Each measurement is carried out in triplicate and each experiment is carried out independently a minimum of 3 times (except for the C9LA+ and C5LA+ derivatives given by way of indication).
FIGS. 1 and 2 bring together the results. These figures show the melanin content of the B16 cells treated for 96 h in the presence of a given molecule (FIG. 2), or of a (+)-lichesterinic acid ((+)LA)/(+)-protolichesterinic acid ((+)PLA)/(+)-roccellaric acid ((+)RA) mixture in a 60/25/15 weight ratio (FIG. 1).
Along the x-axis are the molecules tested with their concentrations expressed in μM.
Along the y-axis, the melanin content is expressed as a percentage relative to the control (DMSO alone=concentration of 0.1%).

The mark [1] stands for this setting: 96 h incubation, concentrations of 0.5 to 2 μM, relative to control, FIG. 2.

`CCCCCCCCCCCCC[C@H]1OC(=O)C(C)=C1C(=O)O` [(+)-lichesterinic acid]: the “depigmenting activity compared with the positive control hydroquinone” value (96 h incubation) was “greater depigmenting activity”.

For `CCCCC[C@H]1OC(=O)C(C)=C1C(=O)O` [C5LA+], the “depigmenting activity compared with the positive control hydroquinone” value (96 h incubation) is on record as “comparable depigmenting activity”. In the case of `CCCCCCCCC[C@H]1OC(=O)C(C)=C1C(=O)O` [C9LA+, (+)-3-methyl-5-nonylparaconic acid], the “depigmenting activity compared with the positive control hydroquinone” value (96 h incubation) is “greater depigmenting activity”. Consider `CCCCCCCCCCCCC[C@@H]1OC(=O)C(C)=C1C(=O)O` [LA−, (−)-lichesterinic acid], for which the “stimulation of melanin production” value under setting [1] is recorded as “+10% to +30%”. `C=C1C(=O)O[C@H](CCCCCCCCCCCCC)[C@H]1C(=O)O` [PLA+, (+)-protolichesterinic acid]: the “decrease in the melanin level” value (same conditions, 0.25 μM, individually isolated product, results not given in figures) was “about −20%”. For the compound `Oc1ccc(O)cc1` [hydroquinone], the “decrease in the melanin level (depigmenting positive control)” value (96 h incubation, under the same conditions, concentration not given, FIG. 2) was −20%.

As for `CCCCCCCCCCCCC[C@H]1OC(=O)[C@@H](C)[C@@H]1C(=O)O` [roccellaric acid, (+)-roccellaric acid], the “decrease in the melanin level” value (same conditions, 1 μM, individually isolated product, results not given in figures) was “not significant”. In the case of (+)-protolichesterinic acid [PLA+], the “decrease in the melanin level” value under setting [1] is reported as 10% to 20%.
